Compound in one assay: O=[As]([O-])(O)O.[K+] [potassium arsenate]
Briefly: thermal stability z-score vs DMSO; higher = more thermally stabilized by treatment. The settings on record: HeLa; arsenate concentration 1 mM. The procedure:
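Cellular thermal proteome profiling in HeLa cells treated with 1 mM arsenate for 1 h (DMSO pretreatment), heated to ten temperatures (37-66.3 °C). Soluble protein was quantified by TMT mass spectrometry relative to DMSO controls; the thermal stability score was transformed to a z-score; mean of n = 3 experiments.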

Compound in a further assay: NC(=O)CCCCC1CCSS1 [lipoamide]
The description is as above. Particulars: HeLa, lipoamide concentration 100 µM. Here is the method: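 Cellular thermal proteome profiling in HeLa cells. Cells were treated with 100 µM lipoamide for 1 h, with or without 1 mM arsenate for a further 1 h, then heated to ten temperatures (37-66.3 °C), and soluble protein was quantified by TMT mass spectrometry relative to 0.1% DMSO controls. The thermal stability score (sum of log2 fold changes minus the abundance score) was transformed to a z-score; mean of n = 3 experiments.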

[1] abbreviates: arsenate co-treatment: 1 mM arsenate 1 h.

Drawing on the supplement of paper PMC12463676, “Small-molecule dissolution of stress granules by redox modulation benefits ALS models” (Nature Chemical Biology, 2025), this text covers thermal stability z-score for 28 targets.
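Also: each temperature applied for 3 min, abundance score taken as mean log2 fold change at the two lowest temperatures, z-score obtained by mean subtraction and division by SD.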

Chain of UniProt Q7L7X3 (Q7L7X3 whole entry): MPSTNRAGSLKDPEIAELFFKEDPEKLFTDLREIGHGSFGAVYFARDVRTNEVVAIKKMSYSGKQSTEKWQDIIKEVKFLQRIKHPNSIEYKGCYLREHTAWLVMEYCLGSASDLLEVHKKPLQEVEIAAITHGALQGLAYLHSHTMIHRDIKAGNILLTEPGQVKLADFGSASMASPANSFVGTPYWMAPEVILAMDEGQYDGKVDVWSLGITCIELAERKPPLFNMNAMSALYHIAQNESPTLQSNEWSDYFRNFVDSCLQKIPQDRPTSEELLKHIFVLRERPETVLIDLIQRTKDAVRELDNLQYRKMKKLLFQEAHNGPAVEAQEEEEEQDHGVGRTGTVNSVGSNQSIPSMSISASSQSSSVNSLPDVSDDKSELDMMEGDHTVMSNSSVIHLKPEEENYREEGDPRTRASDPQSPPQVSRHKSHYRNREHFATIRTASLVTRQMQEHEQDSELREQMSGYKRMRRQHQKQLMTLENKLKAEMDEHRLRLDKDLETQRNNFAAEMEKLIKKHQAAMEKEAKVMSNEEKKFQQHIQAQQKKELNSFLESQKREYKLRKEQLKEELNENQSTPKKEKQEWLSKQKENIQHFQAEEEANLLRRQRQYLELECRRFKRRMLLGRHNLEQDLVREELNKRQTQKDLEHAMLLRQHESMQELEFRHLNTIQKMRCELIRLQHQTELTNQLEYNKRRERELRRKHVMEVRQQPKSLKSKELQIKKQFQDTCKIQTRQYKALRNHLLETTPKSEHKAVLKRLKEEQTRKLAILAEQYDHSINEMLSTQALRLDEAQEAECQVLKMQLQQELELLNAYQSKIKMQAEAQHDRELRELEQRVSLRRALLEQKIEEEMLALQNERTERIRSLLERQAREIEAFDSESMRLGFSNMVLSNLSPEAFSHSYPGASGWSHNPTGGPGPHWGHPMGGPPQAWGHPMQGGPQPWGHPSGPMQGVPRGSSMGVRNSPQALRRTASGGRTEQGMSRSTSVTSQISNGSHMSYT
Chain of UniProt Q96G46 (Q96G46 whole entry): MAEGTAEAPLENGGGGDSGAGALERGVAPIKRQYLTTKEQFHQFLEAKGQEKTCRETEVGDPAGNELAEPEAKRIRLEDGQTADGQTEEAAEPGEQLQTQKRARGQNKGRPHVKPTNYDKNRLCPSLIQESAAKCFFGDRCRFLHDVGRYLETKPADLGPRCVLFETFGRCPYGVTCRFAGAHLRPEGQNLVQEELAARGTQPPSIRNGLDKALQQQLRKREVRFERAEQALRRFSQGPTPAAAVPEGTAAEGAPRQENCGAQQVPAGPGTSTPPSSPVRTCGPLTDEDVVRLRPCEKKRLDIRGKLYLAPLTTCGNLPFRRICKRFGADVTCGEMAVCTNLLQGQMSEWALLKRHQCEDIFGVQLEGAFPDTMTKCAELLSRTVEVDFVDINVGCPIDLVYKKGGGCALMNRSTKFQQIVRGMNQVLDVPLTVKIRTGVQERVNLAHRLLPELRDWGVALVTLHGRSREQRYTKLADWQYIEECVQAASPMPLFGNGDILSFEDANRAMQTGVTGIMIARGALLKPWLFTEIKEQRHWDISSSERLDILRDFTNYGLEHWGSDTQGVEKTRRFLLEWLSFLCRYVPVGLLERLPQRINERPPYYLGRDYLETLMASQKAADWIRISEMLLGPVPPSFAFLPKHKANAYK
Chain of UniProt Q9H2D1 (Q9H2D1 whole entry): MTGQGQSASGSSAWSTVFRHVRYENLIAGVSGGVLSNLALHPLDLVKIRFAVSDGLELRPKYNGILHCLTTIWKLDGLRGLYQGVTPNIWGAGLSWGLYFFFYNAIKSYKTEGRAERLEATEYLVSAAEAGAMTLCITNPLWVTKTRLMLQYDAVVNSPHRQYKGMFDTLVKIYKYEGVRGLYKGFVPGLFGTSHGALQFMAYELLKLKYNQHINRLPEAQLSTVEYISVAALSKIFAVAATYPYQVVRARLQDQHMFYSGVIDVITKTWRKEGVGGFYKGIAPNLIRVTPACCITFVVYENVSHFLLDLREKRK
Chain of UniProt Q99733 (Q99733 whole entry): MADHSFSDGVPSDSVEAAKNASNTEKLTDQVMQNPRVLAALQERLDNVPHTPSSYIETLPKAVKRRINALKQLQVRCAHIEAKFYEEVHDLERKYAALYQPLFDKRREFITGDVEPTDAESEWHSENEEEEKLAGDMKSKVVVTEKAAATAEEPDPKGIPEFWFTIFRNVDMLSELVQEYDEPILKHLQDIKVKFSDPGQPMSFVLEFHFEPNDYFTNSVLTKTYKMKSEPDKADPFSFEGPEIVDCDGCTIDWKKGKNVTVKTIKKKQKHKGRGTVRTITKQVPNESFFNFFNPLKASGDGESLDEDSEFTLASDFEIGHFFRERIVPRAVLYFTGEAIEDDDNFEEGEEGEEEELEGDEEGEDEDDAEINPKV
Chain of UniProt O14495 (O14495 whole entry): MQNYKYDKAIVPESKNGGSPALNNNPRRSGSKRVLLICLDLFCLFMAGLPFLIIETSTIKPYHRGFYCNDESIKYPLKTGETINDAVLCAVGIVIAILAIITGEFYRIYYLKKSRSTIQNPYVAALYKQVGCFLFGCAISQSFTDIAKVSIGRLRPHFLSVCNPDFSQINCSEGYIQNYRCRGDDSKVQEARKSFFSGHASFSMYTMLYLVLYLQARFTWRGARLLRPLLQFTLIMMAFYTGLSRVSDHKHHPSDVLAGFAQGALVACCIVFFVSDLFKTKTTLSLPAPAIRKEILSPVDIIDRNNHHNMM
Chain of UniProt P08195 (P08195 whole entry): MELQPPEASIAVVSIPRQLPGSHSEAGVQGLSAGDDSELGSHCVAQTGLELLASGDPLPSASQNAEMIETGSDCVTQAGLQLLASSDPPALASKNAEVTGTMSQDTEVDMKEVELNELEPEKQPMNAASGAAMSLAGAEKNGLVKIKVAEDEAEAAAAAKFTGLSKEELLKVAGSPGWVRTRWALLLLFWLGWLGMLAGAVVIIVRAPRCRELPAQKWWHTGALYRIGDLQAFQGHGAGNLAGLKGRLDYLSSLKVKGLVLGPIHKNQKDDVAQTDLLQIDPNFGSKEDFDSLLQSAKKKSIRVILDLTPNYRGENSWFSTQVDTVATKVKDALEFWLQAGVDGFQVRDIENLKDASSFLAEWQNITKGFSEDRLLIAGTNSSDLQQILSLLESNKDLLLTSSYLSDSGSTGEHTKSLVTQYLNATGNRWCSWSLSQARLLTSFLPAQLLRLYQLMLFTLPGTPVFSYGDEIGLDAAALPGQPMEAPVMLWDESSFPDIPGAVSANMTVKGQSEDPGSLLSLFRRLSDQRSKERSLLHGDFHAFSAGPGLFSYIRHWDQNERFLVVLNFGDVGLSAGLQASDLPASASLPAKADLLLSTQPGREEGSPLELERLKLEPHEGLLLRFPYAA
Chain of UniProt Q9Y6A4 (Q9Y6A4 whole entry): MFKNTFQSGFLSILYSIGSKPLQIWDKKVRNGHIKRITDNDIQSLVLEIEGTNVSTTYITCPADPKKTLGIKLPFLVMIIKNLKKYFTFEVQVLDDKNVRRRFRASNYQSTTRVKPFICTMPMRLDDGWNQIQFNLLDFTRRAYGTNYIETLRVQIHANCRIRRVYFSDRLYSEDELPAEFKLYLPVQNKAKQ
Chain of UniProt O60784 (O60784 whole entry): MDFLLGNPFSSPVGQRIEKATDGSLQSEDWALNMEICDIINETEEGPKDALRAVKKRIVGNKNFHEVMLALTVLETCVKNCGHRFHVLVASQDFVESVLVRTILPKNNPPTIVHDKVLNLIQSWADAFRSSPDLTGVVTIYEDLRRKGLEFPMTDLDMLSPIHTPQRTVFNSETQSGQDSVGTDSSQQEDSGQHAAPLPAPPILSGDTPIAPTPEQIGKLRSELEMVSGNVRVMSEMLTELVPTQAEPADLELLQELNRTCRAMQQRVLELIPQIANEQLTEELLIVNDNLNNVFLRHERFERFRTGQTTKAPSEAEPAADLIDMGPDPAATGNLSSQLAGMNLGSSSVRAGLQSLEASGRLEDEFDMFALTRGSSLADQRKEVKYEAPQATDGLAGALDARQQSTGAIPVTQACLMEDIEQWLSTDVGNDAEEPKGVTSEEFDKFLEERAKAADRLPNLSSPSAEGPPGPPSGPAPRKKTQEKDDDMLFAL
Chain of UniProt Q8NAV1 (Q8NAV1 whole entry): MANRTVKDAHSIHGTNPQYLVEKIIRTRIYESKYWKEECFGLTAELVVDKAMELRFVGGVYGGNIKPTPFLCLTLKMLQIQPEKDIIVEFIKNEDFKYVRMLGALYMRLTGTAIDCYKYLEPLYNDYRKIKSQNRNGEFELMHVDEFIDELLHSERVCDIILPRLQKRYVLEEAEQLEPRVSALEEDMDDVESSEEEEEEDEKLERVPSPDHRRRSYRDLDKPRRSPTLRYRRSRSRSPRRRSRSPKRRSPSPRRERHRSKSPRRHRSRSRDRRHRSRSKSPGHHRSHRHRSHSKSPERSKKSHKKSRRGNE
Chain of UniProt Q9Y2C4 (Q9Y2C4 whole entry): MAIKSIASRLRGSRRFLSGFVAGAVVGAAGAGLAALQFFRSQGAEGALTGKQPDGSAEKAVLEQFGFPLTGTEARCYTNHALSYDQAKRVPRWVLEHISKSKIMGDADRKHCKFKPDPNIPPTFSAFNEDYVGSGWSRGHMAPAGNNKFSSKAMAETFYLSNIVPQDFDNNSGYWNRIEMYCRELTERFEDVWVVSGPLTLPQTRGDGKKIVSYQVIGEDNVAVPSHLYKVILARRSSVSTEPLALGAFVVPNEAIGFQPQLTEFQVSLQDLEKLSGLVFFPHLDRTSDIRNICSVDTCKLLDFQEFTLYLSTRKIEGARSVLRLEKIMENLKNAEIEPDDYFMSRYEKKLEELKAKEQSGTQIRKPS
Chain of UniProt Q53H82 (Q53H82 whole entry): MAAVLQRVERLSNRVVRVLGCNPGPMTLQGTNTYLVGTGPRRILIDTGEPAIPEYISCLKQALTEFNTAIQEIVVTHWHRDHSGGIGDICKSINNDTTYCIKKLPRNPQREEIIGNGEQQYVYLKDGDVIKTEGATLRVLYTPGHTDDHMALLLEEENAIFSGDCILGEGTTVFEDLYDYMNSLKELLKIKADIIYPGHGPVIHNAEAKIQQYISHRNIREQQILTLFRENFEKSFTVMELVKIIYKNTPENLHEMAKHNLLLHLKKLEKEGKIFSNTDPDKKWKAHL

For the target CPSF7 (UniProt Q8N684), the thermal stability z-score is -0.36 with potassium arsenate, 0.18 in the assay with lipoamide (setting [1]) and 0.191 with lipoamide (arsenate co-treatment: none).

Take LACTB2 (UniProt Q53H82): the figures for the thermal stability z-score with potassium arsenate, in the assay with lipoamide (setting [1]) and in the assay with lipoamide (arsenate co-treatment: none) were -0.335, -0.112 and -0.0753, respectively.

Consider RPL4 (UniProt P36578), for which the thermal stability z-score in the assay with potassium arsenate is -0.66; with lipoamide (setting [1]) it was 0.486; with lipoamide (arsenate co-treatment: none) it was 0.0127.

Take GPATCH11 (UniProt Q8N954): the thermal stability z-score with potassium arsenate was 0.108; with lipoamide (setting [1]), -0.804; with lipoamide (arsenate co-treatment: none) it was -0.268.

As to CFAP20 (UniProt Q9Y6A4), the thermal stability z-score with potassium arsenate was 1.07; in the assay with lipoamide (setting [1]), 0.686; with lipoamide (arsenate co-treatment: none), -0.433.

On to SLC3A2 (UniProt P08195), for which the thermal stability z-score with potassium arsenate is 0.0559; with lipoamide (setting [1]), 0.528; with lipoamide (arsenate co-treatment: none), 0.49.

As for TOM1 (UniProt O60784), the figures for the thermal stability z-score with potassium arsenate, with lipoamide (setting [1]) and with lipoamide (arsenate co-treatment: none) were 0.244, 0.231 and -0.536, respectively.

Regarding CRABP2 (UniProt P29373), the thermal stability z-score in the assay with potassium arsenate was 0.378; with lipoamide (setting [1]) it was 0.359; in the assay with lipoamide (arsenate co-treatment: none) it was 1.24.

Take PFKP (UniProt Q01813): the thermal stability z-score with potassium arsenate was determined as 0.0448; with lipoamide (setting [1]), 0.365; with lipoamide (arsenate co-treatment: none), 0.542.

As to NAP1L4 (UniProt Q99733), the thermal stability z-score with potassium arsenate was -0.384; with lipoamide (setting [1]), -0.0111; in the assay with lipoamide (arsenate co-treatment: none), 0.113.

Take L1CAM (UniProt P32004): the thermal stability z-score in the assay with potassium arsenate was -0.0837; with lipoamide (setting [1]) it was 0.0694; in the assay with lipoamide (arsenate co-treatment: none) it was -0.375.

For CDCA3 (UniProt Q99618), the thermal stability z-score with potassium arsenate is -0.233; in the assay with lipoamide (setting [1]) it was 0.196; in the assay with lipoamide (arsenate co-treatment: none) it was 0.0335.

Regarding EXOG (UniProt Q9Y2C4), the results for the thermal stability z-score in the assay with potassium arsenate, with lipoamide (setting [1]) and with lipoamide (arsenate co-treatment: none) were 0.587, -0.359 and -0.451, respectively.

Consider DUS3L (UniProt Q96G46), for which the thermal stability z-score in the assay with potassium arsenate is -0.458; with lipoamide (setting [1]) it was -0.321; with lipoamide (arsenate co-treatment: none), -0.548.

Turning to LZTR1 (UniProt Q8N653), the thermal stability z-score is -0.137 with potassium arsenate, -0.12 with lipoamide (setting [1]) and 0.0373 with lipoamide (arsenate co-treatment: none).

As to BTN3A2 (UniProt P78410), the thermal stability z-score in the assay with potassium arsenate is -1.15; with lipoamide (setting [1]), 0.00462; in the assay with lipoamide (arsenate co-treatment: none) it was 0.0294.

Regarding P4HTM (UniProt Q9NXG6), the thermal stability z-score was -0.0889 in the assay with potassium arsenate, 0.0884 with lipoamide (setting [1]) and -0.262 in the assay with lipoamide (arsenate co-treatment: none).

Regarding TAOK1 (UniProt Q7L7X3), the results for the thermal stability z-score with potassium arsenate, with lipoamide (setting [1]) and with lipoamide (arsenate co-treatment: none) were -0.658, -0.503 and -0.204, respectively.

With MRPS2 (UniProt Q9Y399), the results for the thermal stability z-score with potassium arsenate, with lipoamide (setting [1]) and with lipoamide (arsenate co-treatment: none) were 0.591, 0.15 and 0.188, respectively.

As for ATAD3B (UniProt Q5T9A4), the thermal stability z-score with potassium arsenate was 0.607; in the assay with lipoamide (setting [1]), -0.338; in the assay with lipoamide (arsenate co-treatment: none), -0.0604.

Regarding RIOK1 (UniProt Q9BRS2), the values for the thermal stability z-score in the assay with potassium arsenate, with lipoamide (setting [1]) and in the assay with lipoamide (arsenate co-treatment: none) were -1.27, -0.529 and -0.513, respectively.

Turning to SLC25A32 (UniProt Q9H2D1), the thermal stability z-score was -0.601 with potassium arsenate, -0.958 with lipoamide (setting [1]) and -1.17 with lipoamide (arsenate co-treatment: none).

On to PFKFB2 (UniProt O60825), for which the thermal stability z-score in the assay with potassium arsenate was -0.631; with lipoamide (setting [1]), 0.137; with lipoamide (arsenate co-treatment: none) it was 0.1.

For the target NSUN2 (UniProt Q08J23), the thermal stability z-score is -0.192 with potassium arsenate, -1.4 with lipoamide (setting [1]) and -0.353 with lipoamide (arsenate co-treatment: none).

As for GRAMD1A (UniProt Q96CP6), the values for the thermal stability z-score in the assay with potassium arsenate, with lipoamide (setting [1]) and with lipoamide (arsenate co-treatment: none) were 0.0677, -1.5 and -1.05, respectively.

For STX8 (UniProt Q9UNK0), the thermal stability z-score with potassium arsenate was 0.248; with lipoamide (setting [1]), -0.198; in the assay with lipoamide (arsenate co-treatment: none) it was 0.507.

On to PLPP3 (UniProt O14495), for which the thermal stability z-score in the assay with potassium arsenate was 0.384; with lipoamide (setting [1]), 0.394; with lipoamide (arsenate co-treatment: none), 0.448.

With PRPF38A (UniProt Q8NAV1), the thermal stability z-score with potassium arsenate was found to be 0.503; with lipoamide (setting [1]), 0.22; with lipoamide (arsenate co-treatment: none) it was 0.213.
